Test results reported in ChEMBL document CHEMBL1150110, “Three novel protease inhibitors from a natural bloom of the cyanobacterium Microcystis aeruginosa” (J Nat Prod, 2002).
Values after ≈ are worked out from the molar mass of the structure shown. Active and inactive are the calls of the source. The rule behind the calls is not given here.

Assays:
[1] = Inhibition of trypsin at 45.5 ug/mL preincubated for 5 mins before addition of substrate measured after 30 mins
[2] = Inhibition of chymotrypsin at 45.5 ug/mL preincubated for 5 mins before addition of substrate measured after 30 mins
[3] = Inhibition of trypsin preincubated for 5 mins before addition of substrate measured after 30 mins

Row | inhibition [1] [%] | Activity [2] | IC50 [3] [µg/mL] | Compound
1 | 15 | – | – | CC(C)C[C@@H](NC(=O)[C@@H](O)Cc1ccc(O)cc1)C(=O)N1[C@@H]2C[C@H](O)CC[C@@H]2C[C@H]1C(N)=O
2 | – | inactive | 4.2 (≈ 4.35 µM) | CC[C@H](C)[C@@H]1NC(=O)[C@H](Cc2ccc(O)cc2)N(C)C(=O)[C@H](Cc2ccccc2)N2C(=O)[C@H](CC[C@H]2O)NC(=O)[C@H](CCCNC(=N)N)NC(=O)[C@@H](NC(=O)[C@H](CC(=O)O)NC(C)=O)[C@@H](C)OC1=O [MICROPEPTIN E1964]
3 | – | inactive | 3.8 (≈ 3.83 µM) | CCCC(=O)N[C@@H](CC(=O)O)C(=O)N[C@@H]1C(=O)N[C@@H](CCCNC(=N)N)C(=O)N[C@H]2CC[C@@H](O)N(C2=O)[C@@H](Cc2ccccc2)C(=O)N(C)[C@@H](Cc2ccc(O)cc2)C(=O)N[C@@H]([C@@H](C)CC)C(=O)O[C@@H]1C [MICROPEPTIN EI992]
